This is an account of results in patent US5462957A, “Azole derivatives, pharmaceutical compositions containing the same, and method for treating mycosis and estrogen-dependent diseases” (Kureha Chemical Industry Co., Ltd., priority 1992, dated 1995).

Read-outs that look alike come from different tables or passages of the source. Where only a bound is given, the exact number is not on record here.

Data set [1] can be described thus: in vivo. Particulars: mouse, po. As to the method:
Acute toxicity by oral route was investigated using ICR-JCL mice.
The compounds of the present invention, Compound Nos. 1, 2, 13, 14, 33, 34, 41, 42, 47, 48, 53, 54, 67, and 68, were dissolved or dispersed in polyethylene glycol 200 or physiological saline. The solution or suspension was given in a prescribed amount by means of a syringe or a stomach tube.

Data set [2] relates to Candida albicans (IFO 1060). The data set can be described thus: Antimycotic activity: survival of mice infected with Candida albicans. Particulars: IFO1060, 480 h, female ICR mice, oral, 100 mg/kg day for 5 consecutive days, observed for 20 days, control and solvent control 20, read-out: Survival Rate (%). It counts as in vivo. How it is done: The evaluation of antimycotic activity can be carried out by administering a dosage of the compound in […] that have been inoculated with a strain of Candida albicans, preferably orally, and observing the mortality of the inoculated mice for 20 days.
The survival rate was calculated from the mean survival days.
Five-week-old female ICR mice of 10 animals per group were infected with Candida albicans (IFO 1060) in an amount of 4.8×10^6 cfu (colony forming unit)/mouse through a tail vein.
After one hour following the introduction of the infection, a solution of each compound (see Table 8 below) in polyethylene glycol 200 was orally administered for 5 consecutive days in the amount of 100 mg/kg day.
In Table 8, the solvent group was administered only with polyethylene glycol.

Data set [3] has as its target T1, aromatase (Homo sapiens, UniProt P11511).
T1 construct: human placenta microsomes (a protein concentration of 0.1 mg/ml); from tissue; host or cells: human placenta microsomes
T1 sequence (P11511 1-503): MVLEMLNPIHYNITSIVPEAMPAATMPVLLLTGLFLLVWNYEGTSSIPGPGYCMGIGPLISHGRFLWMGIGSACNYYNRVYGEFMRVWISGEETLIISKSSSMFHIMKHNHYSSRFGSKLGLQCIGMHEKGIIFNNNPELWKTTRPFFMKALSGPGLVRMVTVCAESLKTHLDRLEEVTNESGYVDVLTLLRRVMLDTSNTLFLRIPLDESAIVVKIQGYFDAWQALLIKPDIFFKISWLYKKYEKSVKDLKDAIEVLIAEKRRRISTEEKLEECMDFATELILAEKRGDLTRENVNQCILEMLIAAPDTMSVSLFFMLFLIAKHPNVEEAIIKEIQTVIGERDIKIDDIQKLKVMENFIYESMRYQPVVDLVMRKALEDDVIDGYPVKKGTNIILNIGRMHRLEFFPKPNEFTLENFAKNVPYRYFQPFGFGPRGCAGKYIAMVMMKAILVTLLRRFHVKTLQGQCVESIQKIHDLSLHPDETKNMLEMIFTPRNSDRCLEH
Kind of data set: Aromatase inhibitory activity (human placenta microsomes, [19-14C]4-androstene-3,17-dione). Type of data set: biochemical. How it is done:
The aromatase enzyme-inhibitory activity was determined in the manner described by Covey, D. F., Biochem. Biophys. Res. Commu., 157 (1), 81-86, 1988. More specifically, the aromatase-inhibitory activity of a compound of formula (I) was evaluated in terms of the concentration (IC50) of the compound causing 50% inhibition of the aromatase activity.
Aromatase activity was determined in the manner described by Covey, D. F., Biochem. Biophys. Res. Commun. 157 (1), 81-86 (1988).
Aromatase inhibitory activity of the compounds was evaluated in the 50% aromarase-inhibitory concentration (IC50). Microsomes of human-placenta and [19-^14 C]4-androstene-3,17 dione were used as an aromatase source and a substrate, respectively.
The radioactivity of H^14 COOH which was released into a reaction mixture as a result of aromatization was measured to evaluate the aromatase activity.
The aromatase inhibitory activity and the concentration of each compound was depicted in a graph, from which the IC50 was determined.
[19-^14 C]4-Androstene-3,17-dione (1×10^-6 M, 2 KBq/ml), human placenta microsomes (a protein concentration of 0.1 mg/ml), coenzyme NADP (2×10^-3 M), glucose-6-phosphoric acid (4×10^-3 M), and glucose-6-phosphoric acid dehydrogenase (4U/ml) were added to a phosphoric acid buffer solution (67 mM, pH 7.2, 0.5 ml) and reacted at 37° C. for 30 minutes while the mixture was being shaken.
The test compound dissolved in DMSO was added to the reaction mixture and the final concentration of DMSO was in the range of 0.1 to 0.55% by volume per volume.
Chloroform (5 ml) was then added to the reaction mixtures to cease the reaction. The H^14 COOH, which had been released into a reaction mixture, was recovered in a water layer by stirring the reaction mixture. The water layer (0.1 ml) was added to a liquid scintillation cocktail (Atomlight, Dupont, 4 ml) to measure its radioactivity.
The positive control is 4-hydroxyandrostenedione.

Data set [4] deals with spontaneous mastocarcinoma. The data set can be described thus: Antitumor effects: tumor growth inhibition in rats with mastocarcinoma. It counts as in vivo, Sprague-Dawley rats. Particulars: Rattus norvegicus, ip, read-out: Tumor growth inhibition rate (%). How it is done: Fifty-day-old female Sprague-Dawley rats were orally given 7,12-dimethylbenzanthracene (15 mg/kg) and observed for two months. Those rats developing spontaneous mastocarcinoma were selected and divided into groups each consisting of 15 animals: groups each of which is to be given a different compound of the present invention; a group to be given a control compound; and a control group to be given a simple physiological saline solution. Each group was intraperitoneally given the corresponding physiological saline solution or dispersion in an amount of 25 mg/kg daily for 20 consecutive days. Five days after the last administration, the rats were sacrificed to weigh the tumors. The mean tumor weight (T) of the 15 rats of each of the groups which had been given compounds of the present invention or the control compound, and the mean tumor weight (C) of the 15 rats of the control group which had been given a simple physiological saline solution were calculated. The tumor growth inhibition rate of each group was calculated on the basis of the following formula:
Tumor Growth Inhibition Rate (%) = {1-T/C)} × 100. Positive control is 4-hydroxyandrostenedione.

Where [5] appears, read: human placenta microsomes, substrate 1×10^-6 M, pH 7.2, 37° C., 30 minutes, read-out: IC50.
[6] abbreviates: female Sprague-Dawley rats given 7,12-dimethylbenzanthracene, intraperitoneal, 25 mg/kg daily for 20 consecutive days, mean tumor weight vs saline control.

Regarding `CC1OCC(Cc2ccc(F)cc2)C1(O)Cn1ccnc1` (stereo not drawn) [compound 2, 4-(4-fluorobenzyl)-3-hydroxy-3-(imidazol-1-ylmethyl)-2-methyl tetrahydrofuran], the LD50 (as a rule, the dose at which mortality reaches 50%) at 168 h in data set [1] was greater than 1000 mg/kg. In data set [2], the responders at 100 mg/kg was 55%. Besides, the IC50 – broadly, the concentration at which inhibition is half-maximal – in data set [3] (setting [5]) amounted to 0.53 µM. In data set [4] (setting [6]), the inhibition in vivo at 25 mg/kg was 54%.
On to `OC1(Cn2ccnc2)COCC1Cc1ccc(F)cc1` (stereo not drawn) [compound 22], for which the responders at 100 mg/kg in data set [2] worked out at 46%. In addition, the IC50 in data set [3] (setting [5]) was 0.63 µM. For the same compound, the inhibition in vivo at 25 mg/kg in data set [4] (setting [6]) came to 75%.
In data set [1], `CC1(C)OCC(Cc2ccc(F)cc2F)C1(O)Cn1cncn1` (stereo not drawn) [compound 41] yielded a median lethal dose (LD50) at 168 h greater than 1000 mg/kg. Further, the responders at 100 mg/kg in data set [2] was 56%. The compound also returned a 50% inhibitory concentration (IC50) in data set [3] of 3 µM. Moreover, the inhibition in vivo at 25 mg/kg in data set [4] (setting [6]) is 48%.
In the same order, the values of `CC1(C)OCC(Cc2ccc(F)cc2F)C1(O)Cn1ccnc1` (stereo not drawn) [compound 42] are greater than 1000 mg/kg, 63%, 0.27 µM and 56%.
On to `CC1(C)OCC(Cc2ccc(Cl)cc2)C1(O)Cn1ccnc1` (stereo not drawn) [Compound No. 34, 4-(4-chlorobenzyl)-3-hydroxy-3-(1H-imidazol-l-ylmethyl) -2,2-dimethyltetrahydrofuran], for which the LD50 at 168 h in data set [1] was greater than 1000 mg/kg. In data set [2], the responders at 100 mg/kg came to 80%. In data set [3], the midpoint of inhibition, the IC50, lay at 0.5 µM. The inhibition in vivo at 25 mg/kg in data set [4] (setting [6]) turned out to be 80%.
Take `CC1(C)OCC(Cc2ccc(F)cc2)C1(O)Cn1cncn1` (stereo not drawn) [Compound No. 13, 4-(4-fluorobenzyl)-3-hydroxy-2,2-dimethyl-3 (1H-1,2,4-triazole-1-ylmethyl) tetrahydrofuran]: in data set [1], the LD50 at 168 h was greater than 1000 mg/kg. In addition, the responders at 100 mg/kg in data set [2] came to 55%. This compound also gave an IC50 in data set [3] of 5.3 µM. Further, the inhibition in vivo at 25 mg/kg in data set [4] (setting [6]) amounted to 58%.
As for `CC1(C)OCC(Cc2ccc(Cl)cc2Cl)C1(O)Cn1cncn1` (stereo not drawn) [compound 47], the LD50 at 168 h in data set [1] is greater than 1000 mg/kg. The responders at 100 mg/kg in data set [2] was 58%. The half-inhibitory concentration (IC50) in data set [3] was found to be 1 µM. Also, the inhibition in vivo at 25 mg/kg in data set [4] (setting [6]) was 55%.
`CC1(C)OCC(Cc2ccccc2-c2ccccc2)C1(O)Cn1cncn1` (stereo not drawn) [Compound No. 67] gave an LD50 at 168 h in data set [1] greater than 1000 mg/kg. In addition, the responders at 100 mg/kg in data set [2] came to 53%. In data set [3], this compound yielded a 50% inhibitory concentration (IC50) of 4.7 µM. Also, the inhibition in vivo at 25 mg/kg in data set [4] (setting [6]) worked out at 74%.
For `CC1(C)OCC(Cc2ccccc2-c2ccccc2)C1(O)Cn1ccnc1` (stereo not drawn) [Compound No. 68], in data set [1], the LD50 at 168 h was greater than 1000 mg/kg. For the same compound, the responders at 100 mg/kg in data set [2] stood at 62%. Further, the IC50 in data set [3] (setting [5]) stood at 0.35 µM. The inhibition in vivo at 25 mg/kg in data set [4] (setting [6]) was determined as 85%.
On to `C[C@]12CCC(=O)C(O)=C1CC[C@@H]1[C@@H]2CC[C@]2(C)C(=O)CC[C@@H]12` [Positive Control, 4-hydroxyandrostenedione, reference compound], for which the inhibition in vivo at 25 mg/kg in data set [4] amounted to 48%.
`CC1(C)OCC(Cc2ccc(C#N)cc2)C1(O)Cn1cncn1` (stereo not drawn) [Compound No. 53] registered an LD50 at 168 h in data set [1] greater than 1000 mg/kg. In data set [2], the responders at 100 mg/kg turned out to be 42%. Also, in data set [3], the 50% inhibitory concentration (IC50) is 1.2 µM. The inhibition in vivo at 25 mg/kg in data set [4] (setting [6]) is 60%.
The compound `CC1(C)OCC(Cc2ccc(F)cc2)C1(O)Cn1ccnc1` (stereo not drawn) [Compound No. 14, 4-(4-fluorobenzyl)-3-hydroxy-3-(imidazol-1-ylmethyl)-2,2-dimethyltetrahydrofuran] came in with an LD50 at 168 h in data set [1] greater than 1000 mg/kg. Besides, the responders at 100 mg/kg in data set [2] was determined as 70%. Also, it took 0.48 µM to reach half-maximal inhibition in data set [3] (IC50). Further, in data set [4] (setting [6]), the inhibition in vivo at 25 mg/kg worked out at 63%.
As to `CC1(C)OCC(Cc2ccc(C#N)cc2)C1(O)Cn1ccnc1` (stereo not drawn) [Compound No. 54], in data set [1], the LD50 at 168 h was greater than 1000 mg/kg. Moreover, the responders at 100 mg/kg in data set [2] stood at 40%. The IC50 in data set [3] (setting [5]) came out at 1 µM. In addition, the inhibition in vivo at 25 mg/kg in data set [4] (setting [6]) turned out to be 73%.
Take `OC1(Cn2cncn2)COCC1Cc1ccc(F)cc1` (stereo not drawn) [compound 21]: in data set [2], the responders at 100 mg/kg is 37%. Also, the concentration for half-maximal inhibition (IC50) in data set [3] (setting [5]) worked out at 4.7 µM. The inhibition in vivo at 25 mg/kg in data set [4] (setting [6]) is 72%.
As to `CC1OCC(Cc2ccc(F)cc2)C1(O)Cn1cncn1` (stereo not drawn) [Compound No. 1, 4-(4-fluorobenzyl)-3-hydroxy-2-methyl-3-(1H-1,2,4-triazol-1-ylmethyl) tetrahydrofuran], the LD50 at 168 h in data set [1] is greater than 1000 mg/kg. In data set [2], the responders at 100 mg/kg worked out at 40%. Moreover, in data set [3], half-maximal inhibition (IC50) was put at 6 µM. Further, the inhibition in vivo at 25 mg/kg in data set [4] (setting [6]) amounted to 60%.
Regarding `CC1(C)OCC(Cc2ccc(Cl)cc2Cl)C1(O)Cn1ccnc1` (stereo not drawn) [compound 48], in data set [1], the LD50 at 168 h was greater than 1000 mg/kg. The responders at 100 mg/kg in data set [2] was 53%. Moreover, in data set [3], it took 1.5 µM to reach half-maximal inhibition (IC50). In data set [4] (setting [6]), the inhibition in vivo at 25 mg/kg was found to be 70%.
For `CC1(C)OCC(Cc2ccc(Cl)cc2)C1(O)Cn1cncn1` (stereo not drawn) [Compound No. 33, 4-(4-chlorobenzyl)-3-hydroxy-2,2-dimethyl-3-(1H-1,2,4-triazol-1-ylmethyl) tetrahydrofuran], in that order: greater than 1000 mg/kg, 60%, 7 µM and 65%.
